According to publication PMC7397174, “4-Arylthieno[2,3-b]pyridine-2-carboxamides Are a New Class of Antiplasmodial Agents” (Molecules, 2020):

Experiments:
[1] = tested on: erythrocytic forms of P. falciparum (strain 3D7); assay: Viability screening of antiplasmodial activity (SYBR-gold DNA quantification, 96 h); assay type: cell-based, Plasmodium falciparum; details: for activity at 0.3 µM / activity at 3 µM / IC50: Plasmodium falciparum; for activity at 0.3 µM / activity at 3 µM: 96 h, strain 3D7, calculated on DMSO controls; for activity at 0.3 µM: read-out: Parasitemia (3D7) at 0.3 µM [%]; for activity at 3 µM: read-out: Parasitemia (3D7) at 3 µM [%]; for SI (Selectivity index for 3D7 erythrocytic forms versus HEK293 cells): 3D7 versus HEK293 cells; for IC50: 3D7, strain 3D7, erythrocytic forms; for IC50 (3D7) [nM]: strain 3D7, erythrocytic forms; for activity at 3 µM / antiplasmodial activity at the concentration investigated (in words): 3 µM
[2] = in vitro; assay type: cell-based, human; details: human, HEK293T Viability at 30 µM [%]
Description: Cytotoxic effects of test compounds on eukaryotic cells were investigated using a HEK293T cell viability assay. First, the cell density of a HEK293T culture was determined. […] The supernatant was then aspirated and fresh culture medium was added to 200 μL into which the test compounds were previously added. All substances were previously dissolved in DMSO. […] The viability of the cells was then examined by adding PrestoBlue® Cell Viability Agent (Invitrogen, Carlsbad, CA, USA). The supernatant was removed, 10% PrestoBlue® was added in preheated PBS and the culture was incubated for 30 min at 37 °C. In cells with an active metabolism, the PrestoBlue dye is reduced, causing it to fluorescence. The fluorescence (λex = 560 nm, λem = 590 nm) was measured in an EnVision Multilable Plate Reader (Perkin Elmer, Waltham, MA, USA; integration time 0.1 sec/well).

[3] = target: rPfGSK-3 (Plasmodium falciparum, UniProt O77344); assay: KinaseGlo Plus assay for inhibition of PfGSK-3; assay type: biochemical; details: 10 µM; remaining activity, calculated on DMSO controls; Table 3; read-out: rPfGSK-3 Activity at 10 µM [%]
Chain of rPfGSK-3 (O77344 entry or part of it): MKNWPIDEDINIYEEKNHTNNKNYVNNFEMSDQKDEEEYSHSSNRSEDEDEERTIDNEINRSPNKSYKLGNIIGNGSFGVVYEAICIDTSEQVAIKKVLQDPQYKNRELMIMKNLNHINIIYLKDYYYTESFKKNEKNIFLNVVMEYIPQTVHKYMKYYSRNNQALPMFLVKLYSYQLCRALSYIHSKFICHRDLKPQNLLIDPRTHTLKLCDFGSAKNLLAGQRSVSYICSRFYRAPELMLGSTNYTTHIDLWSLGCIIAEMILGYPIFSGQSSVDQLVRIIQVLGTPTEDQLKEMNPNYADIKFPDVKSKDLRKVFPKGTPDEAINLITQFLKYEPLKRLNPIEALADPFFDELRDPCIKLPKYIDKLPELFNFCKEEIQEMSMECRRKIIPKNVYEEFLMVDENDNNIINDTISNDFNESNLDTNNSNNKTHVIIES

| SMILES | activity at 0.3 µM [1] [%] | activity at 3 µM [1] [%] | viability at 48 h, 30 µM [2] [%] | remaining activity at 10 µM [3] [%] | SI (Selectivity index for 3D7 erythrocytic forms versus HEK293 cells) [1] | IC50 [1] [nM] | IC50 (3D7) [nM] [1] | antiplasmodial activity at the concentration investigated (in words) [1] |
| --- | --- | --- | --- | --- | --- | --- | --- | --- |
| N#Cc1c(N)nc2sc(C(=O)Nc3cccc(Cl)c3)c(N)c2c1-c1ccc(N2CCCC2)cc1Cl [Compound 9s, 3,6-Diamino-4-[2-chloro-4-(pyrrolidin-1-yl)phenyl]-N-(3-chlorophenyl)-5-cyanothieno[2,3-b]pyridine-2-carboxamide] | 78.3 ± 15.2 | 4.8 ± 5 | 114 ± 40.3 | 113 ± 15.9 | – | – | – | – |
| N#Cc1c(N)nc2sc(C(=O)Nc3ccccc3Cl)c(N)c2c1-c1ccc(N2CCCC2)cc1Cl [Compound 9t, 3,6-Diamino-4-[2-chloro-4-(pyrrolidin-1-yl)phenyl]-N-(2-chlorophenyl)-5-cyanothieno[2,3-b]pyridine-2-carboxamide] | 68.9 ± 27.3 | 60.6 ± 23.7 | 99 ± 22.6 | 105 ± 6.6 | – | – | – | – |
| N#Cc1c(N)nc2sc(C(=O)Nc3ccccc3Cl)c(N)c2c1-c1ccc(N2CCOCC2)cc1Cl [Compound 9u, 3,6-Diamino-4-(2-chloro-4-morpholinophenyl)-N-(2-chlorophenyl)-5-cyanothieno[2,3-b]pyridine-2-carboxamide] | 74.5 ± 21.2 | 53.1 ± 29.6 | 87 ± 26.7 | 110 ± 6.2 | – | – | – | – |
| N#Cc1c(N)nc2sc(C(=O)Nc3ccc(Cl)cc3)c(N)c2c1-c1ccc(N2CCOCC2)cc1Cl [Compound 9v, 3,6-Diamino-4-(2-chloro-4-morpholinophenyl)-N-(4-chlorophenyl)-5-cyanothieno[2,3-b]pyridine-2-carboxamide] | 51.8 ± 38.6 | 6.2 ± 6.1 | 92.3 ± 18.8 | 91.8 ± 18.7 | >20 | 1470 | – | – |
| CN(CCNC(=O)OC(C)(C)C)c1ccc(-c2c(C#N)c(N)nc3sc(C(=O)Nc4cccc(Cl)c4)c(N)c23)c(Cl)c1 [Compound 9w, tert-Butyl {2-[(3-chloro-4-{3,6-diamino-2-[(3-chlorophenyl)carbamoyl]-5-cyanothieno[2,3-b]pyridin-4-yl}phenyl)(methyl)amino]ethyl}carbamate] | 50.1 ± 37.9 | 3.6 ± 2.4 | 76.1 ± 17.3 | 95.3 ± 8.6 | >30 | 860 | – | – |
| N#Cc1c(N)nc2sc(C(=O)Nc3ccc(F)cc3)c(N)c2c1-c1ccc(N2CCOCC2)cc1Cl [Compound 9x, 3,6-Diamino-4-(2-chloro-4-morpholinophenyl)-5-cyano-N-(4-fluorophenyl)thieno[2,3-b]pyridine-2-carboxamide] | 59 ± 43.6 | 8.7 ± 6.6 | 86.1 ± 16 | 90.2 ± 8.9 | – | – | – | – |
| CN(CCNC(=O)OC(C)(C)C)c1ccc(-c2c(C#N)c(N)nc3sc(C(=O)Nc4ccc(Cl)cc4)c(N)c23)c(Cl)c1 [Compound 9y, tert-Butyl {2-[(3-chloro-4-{3,6-diamino-2-[(4-chlorophenyl)carbamoyl]-5-cyanothieno[2,3-b]pyridin-4-yl}phenyl)(methyl)amino]ethyl}carbamate] | 36.6 ± 27.4 | 5.5 ± 4.6 | 81.7 ± 19.6 | 110 ± 7.7 | >40 | 699 | – | – |
| N#Cc1c(N)nc2sc(C(=O)Nc3ccc(Cl)cc3)c(N)c2c1-c1ccc(N2CCCC2)cc1Cl [Compound 9z, 3,6-Diamino-4-[2-chloro-4-(pyrrolidin-1-yl)phenyl]-N-(4-chlorophenyl)-5-cyanothieno[2,3-b]pyridine-2-carboxamide] | 73.1 ± 22.1 | 6.4 ± 5.8 | 91.9 ± 13.6 | 109 ± 4.9 | – | – | – | – |
| CC(C)(C)OC(=O)N1CCN(c2ccc(-c3c4c(nc5sc(C(=O)Nc6ccc(Cl)cc6)c(N)c35)CCC4)c(Cl)c2)CC1 [Compound 17a, tert-Butyl 4-(4-{3-amino-2-[(4-chlorophenyl)carbamoyl]-6,7-dihydro-5H-cyclopenta[b]thieno[3,2-e]-pyridin-4-yl}-3-chlorophenyl)piperazine-1-carboxylate] | 50.5 ± 26.3 | 8 ± 10.2 | 93.9 ± 6.5 | 102 ± 4 | – | – | – | – |
| Cc1cccc(-c2c3c(nc4sc(C(=O)Nc5ccc(Cl)cc5)c(N)c24)CCC3)c1 [Compound 17f, 3-Amino-N-(4-chlorophenyl)-4-(3-methylphenyl)-6,7-dihydro-5H-cyclopenta[b]thieno[3,2-e]pyridine-2-carboxamide] | 9.1 ± 16.1 | 1 ± 14.9 | 72.4 ± 23.4 | 103 ± 6.2 | >100 | 19.2 | two-digit nanomolar range | – |
| Cc1nc2sc(C(=O)Nc3ccc(Cl)cc3)c(N)c2c(-c2ccccc2)c1C(=O)OC(C)(C)C [Compound 17g, tert-Butyl 3-amino-2-[(4-chlorophenyl)carbamoyl]-6-methyl-4-phenylthieno[2,3-b]pyridine-5-carboxylate] | 11.7 ± 10.1 | 9.8 ± 15.1 | 56.9 ± 31.3 | 101 ± 5.5 | >100 | 25.3 | two-digit nanomolar range | – |
| Cc1cccc(-c2c(C(=O)OC(C)(C)C)c(C)nc3sc(C(=O)Nc4ccc(Cl)cc4)c(N)c23)c1 [Compound 17h, tert-Butyl 3-amino-2-[(4-chlorophenyl)carbamoyl]-6-methyl-4-(3-methylphenyl)thieno[2,3-b]pyridine-5-carboxylate] | 11.8 ± 12.3 | 2.3 ± 14.5 | < 50 | 106 ± 5.3 | – | – | – | – |
| Cc1cccc(-c2c(C(=O)O)c(C)nc3sc(C(=O)Nc4ccc(Cl)cc4)c(N)c23)c1 [Compound 17i, 3-Amino-2-[(4-chlorophenyl)carbamoyl]-6-methyl-4-(3-methylphenyl)thieno[2,3-b]pyridine-5-carboxylic acid] | 99.8 ± 18.8 | 62.4 ± 21.5 | 87.6 ± 19.6 | 106 ± 8 | – | – | – | only low |
| Cc1nc2sc(C(=O)Nc3ccc(Cl)cc3)c(N)c2c(-c2ccccc2)c1C(=O)O [Compound 17j, 3-Amino-2-[(4-chlorophenyl)carbamoyl]-6-methyl-4-phenylthieno[2,3-b]pyridine-5-carboxylic acid] | 76.1 ± 23.1 | 97.1 ± 19.9 | 95.8 ± 9.8 | 108 ± 10.4 | – | – | – | no |
| CC(C)(C)OC(=O)N1CCN(c2ccc(-c3c4c(nc5sc(C(=O)Nc6ccc(Cl)cc6)c(N)c35)CCCC4)c(Cl)c2)CC1 [Compound 17k, tert-Butyl 4-(4-{3-amino-2-[(4-chlorophenyl)carbamoyl]-5,6,7,8-tetrahydrothieno[2,3-b]quinolin-4-yl}-3-chlorophenyl)piperazine-1-carboxylate] | 30 ± 24.9 | 2.6 ± 9 | 84.3 ± 14.3 | 106 ± 18.7 | – | – | – | – |
| Cc1cc(-c2ccc(N3CCN(C(=O)OC(C)(C)C)CC3)cc2Cl)c2c(N)c(C(=O)Nc3ccc(Cl)cc3)sc2n1 [Compound 17l, tert-Butyl 4-(4-{3-amino-2-[(4-chlorophenyl)carbamoyl]-6-methylthieno[2,3-b]pyridin-4-yl}-3-chloro-phenyl)piperazine-1-carboxylate] | 25.5 ± 14.4 | 1 ± 6.9 | 68.4 ± 24.3 | 103 ± 12.9 | >100 | 55.5 | two-digit nanomolar range | – |
